Measured values reported in US11376271B1, “Methods of ameliorating the effects of alcoholic liver damage” (FULGENT LIFE INC., priority 2021, dated 2022).

Assays:
AML12 cells [1] = test: Rescue from hydrogen peroxide (HP) genotoxicity: cell survival and NAD+ level; format: cell-based; settings: 3 h
Description: Because the increasing extent of NAD+ concentration is of interest, whether NADH can improve the cell survival rate under the stressful conditions of depletion of NAD+ was also assessed. To that end, as genotoxicity can lead to DNA damage, activate poly(ADP-ribose) polymerases and induce NAD+ depletion, genotoxicity was tested. Strong genotoxicity will lead to severe consumption of NAD+ by cells, resulting in cell death. To test genotoxicity, AML12 cells were treated with 500 μM hydrogen peroxide (HP) for 3 hours in the presence or absence of 1 mM NADH, and then the cells were counted and NAD+ was detected in the samples co-treated with NADH (1 mM) or its vehicle. FIG. 4A is a graph comparing the cell survival rate of the HP treated cells, NADH treated cells, and the HP+NADH treated cells relative to a control. And FIG. 4B is a graph comparing the NAD+ level of the HP treated cells, NADH treated cells, and the HP+NADH treated cells relative to a control. The cell survival rates and cellular NAD+ levels in FIGS. 4A-B are expressed as mean±SD.
The effects of NADH and NMN at a lower concentration (250 μM) on AML12 cells was also tested in a separate assay. Specifically, AML12 cells were treated with 500 μM HP in the presence or absence of 250 μm NADH or NMN for 3 h. FIG. 4C is a graph comparing the cell survival rate of the HP treated cells, HP+NADH treated cells, and the HP+NMN treated cells relative to a control. And FIG. 4D is a graph comparing the NAD+ level of the HP treated cells, HP+NADH treated cells, and the HP+NMN treated cells relative to a control. The cell survival rate and cellular NAD+ levels in FIGS. 4C-D are expressed as mean±SD.

male C57BL/6J mice [2] = test: Liver MDA and SOD after acute alcohol ingestion; format: in vivo; settings: 500 mg/kg intragastric 15 min prior to 8 ml/kg ethanol; liver 6 h after alcohol
Description: Six hours after treatment with alcohol, liver tissues were taken for determination of MDA and SOD. Liver samples were prepared with homogenization in cold isotonic saline. The homogenate (10%, w/v) was centrifuged at 4500 g for 10 minutes and the supernatant was used for biochemical analysis. The MDA, SOD and TG levels were determined with commercial kits (Abcam, #ab118970; Thermofisher, #EIASODC and Abcam, ab65336) according to the manufacturer's instructions. The results were normalized to the total protein determined by BCA Protein Assay Kit (Abcam, #ab102536) according to the manufacturer's instructions.

male C57BL/6J mice [3] = test: Liver triglyceride and serum VLDL (lipid metabolism); format: in vivo; settings: 500 mg/kg intragastric 15 min prior to 8 ml/kg ethanol
Description: Liver samples were prepared with homogenization in cold isotonic saline. The homogenate (10%, w/v) was centrifuged at 4500 g for 10 minutes and the supernatant was used for biochemical analysis. The MDA, SOD and TG levels were determined with commercial kits (Abcam, #ab118970; Thermofisher, #EIASODC and Abcam, ab65336) according to the manufacturer's instructions. The results were normalized to the total protein determined by BCA Protein Assay Kit (Abcam, #ab102536) according to the manufacturer's instructions. […] Liver histopathology was detected by Oil Red 0 staining. According to the standard operating procedure, some liver tissues were fixed for histopathological assessment. The other part of the liver was stored at −80° C. […] frozen sections were stained with Oil Red 0 to detect liver steatosis. The stained sections were examined by a 400× optical microscope. The level of VLDL in serum samples was examined with a Bio-Tek synergy2 Multiscan Spectrum (Botten Instruments Co.). To evaluate alcoholic liver injury, the index of liver lipid metabolism (i.e., the triglyceride (TG) level in liver tissue) and the activity of serum Very Low Density Lipoprotein (VLDL) were also measured in the mice treated as described above in connection with FIG. 9A. […] The data in both FIGS. 9A and 9B are expressed as mean±SD (n=8); *p<0.01 vs control; #p<0.01 vs alcohol exposure.

AML12 cells [4] = test: Apoptosis markers Annexin V and Caspase 3/7 by flow cytometry; format: cell-based; settings: 1 mM, 24 hours
Description: To assess this toxicity, C2C12, Neuro2a and AML12 cells were treated with 1 mM NADH for 24 hours, and then the total cell numbers were measured. […] The cells were stained with trypan blue and then counted with a hemocytometer. […] The Annexin V/PI staining kit and Caspases3/7/SYTOX dead cell staining kit (Life Technologies) were used and cells were counted with a BD FACSCelesta™ flow cytometer. The quadrants of apoptotic cells, necrotic cells and living cells were identified and quantified according to the manufacturer's instructions.
To examine apoptotic markers, AML12 cells were stained for Annexin V and Caspase 3/7, and cells were counted with a flow cytometer. […] Data are expressed as mean±SD, n=3. Quadrants with live cells (brown), necrotic cells (gray) and apoptotic cells (blue) were quantified.

male C57BL/6J mice [5] = test: Liver histopathology by Oil Red O staining; format: in vivo; settings: 500 mg/kg intragastric 15 min prior to 8 ml/kg ethanol
Description: Liver histopathology was detected by Oil Red 0 staining. According to the standard operating procedure, some liver tissues were fixed for histopathological assessment. The other part of the liver was stored at −80° C. […] frozen sections were stained with Oil Red 0 to detect liver steatosis. The stained sections were examined by a 400× optical microscope. The level of VLDL in serum samples was examined with a Bio-Tek synergy2 Multiscan Spectrum (Botten Instruments Co.).

[6] = 500 μM HP + 250 μM compound, AML12 cells

NC(=O)C1=CN([C@@H]2O[C@H](COP(=O)(O)OP(=O)(O)OC[C@H]3O[C@@H](n4cnc5c(N)ncnc54)C(O)C3O)C(O)C2O)C=CC1 (some centres unmarked) [NADH, nicotinamide adenine dinucleotide (NAD)+hydrogen (H)]
effect on NAD+ levels under HP (AML12 cells [1]; [6]): protective effect
effect on cell survival under HP (AML12 cells [1]; [6]): protective effect
NAD+ level in HP co-treated cells (AML12 cells [1]; 500 μM HP + 1 mM NADH, AML12 cells): remained high
cell survival rate under HP+NADH treatment (AML12 cells [1]; 500 μM HP + 1 mM NADH, AML12 cells (HP alone 12%)): ~72%
MDA content in the liver (male C57BL/6J mice [2]): significantly reduce
SOD activity in the liver (male C57BL/6J mice [2]): increase
liver TG level vs alcohol exposure alone (male C57BL/6J mice [3]): decreased
liver index vs alcohol exposure alone (male C57BL/6J mice [3]): decreased
serum VLDL level vs alcohol exposure alone (male C57BL/6J mice [3]): decreased
Annexin V or caspase 3/7 apoptosis markers vs control (AML12 cells [4]): no significant changes
degree of liver fatty degeneration (Oil Red O) (male C57BL/6J mice [5]): noticeably decreased
